Several values for one entry are separate records, joined by “and”; a condition that tells them apart may be missing. Identical values can stand only once. Like-named read-outs stand apart in the source and are kept apart here.
Key:
Assay type in all cases: in vivo
weeds = test: Pre-emergence test (herbicidal action against weeds, Colby)
From the text: (§1) The expected action for a given combination of two herbicides can be calculated as follows (cf. COLBY, S. R.: “Calculating synergistic and antagonistic responses of herbicide combinations”, Weeds 15, Pages 20-22, 1967):
(§2) If the actual damage exceeds the calculated value, the combination has a superadditive effect, that is to say a synergistic effect.
The theoretically expected activity for a given combination of three herbicides can likewise be found in the literature mentioned above.
(§3) Solvent: 2 to 3 parts by weight of acetone or N,N-dimethyl-formamide
(§4) Emulsifier: 1 part by weight of alkylaryl polyglycol ether
(§5) To produce a suitable preparation of active compound, 1 part by weight of active compound is mixed with the stated amount of solvent, the stated amount of emulsifier is added and the concentrate is diluted with water to the desired concentration. Formulated products are dissolved in water and then diluted with water to the desired concentration.
(§6) The solutions of the other mixing components (active compounds or safeners) are prepared analogously. The separately prepared solutions of the various mixing components are then combined and, if appropriate, additional substances (formulation auxiliaries, additives, etc.) are added and, if appropriate, water is added to prepare the desired dilution.
(§7) Seeds of the test plants are sown in standard soil. After 24 hours, the soil is sprayed with the preparation of active compound such that the particular amount of active compound desired in each case is applied per unit area. The concentration of active compound in the spray liquor is chosen such that the particular amount of active compound desired in each case is applied in 500 litres of water per hectare. The containers with the test plants are kept in a greenhouse at controlled temperature and controlled illumination until evaluation.
(§8) After three weeks, the degree of damage to the plants is rated in % damage in comparison to the development of the untreated control. The figures denote
(§9) 0%=no effect/no damage (like untreated control)

Abutilon = test: Pre-emergence test (herbicidal action, Colby): Abutilon
Datura = test: Pre-emergence test (herbicidal action, Colby): Datura
Alopecurus = test: Pre-emergence test (herbicidal action, Colby): Alopecurus
Digitaria = test: Pre-emergence test (herbicidal action, Colby): Digitaria
Polygonum = test: Pre-emergence test (herbicidal action, Colby): Polygonum
Stellaria = test: Pre-emergence test (herbicidal action, Colby): Stellaria
Matricaria = test: Pre-emergence test (herbicidal action, Colby): Matricaria
Echinochloa = test: Pre-emergence test (herbicidal action, Colby): Echinochloa; settings: 250 g of a.i./ha
Cyperus = test: Pre-emergence test (herbicidal action, Colby): Cyperus
Setaria = test: Pre-emergence test (herbicidal action, Colby): Setaria; settings: 250 g of a.i./ha
maize = test: Pre-emergence test in maize (crop plant compatibility)
Description: as §3, §4, §5, §6, §7, §9

Summer wheat = test: Post-emergence test in barley and wheat: summer wheat; settings: for damage, Summer wheat (5 days) / damage, Summer wheat (21 days) / damage, Summer wheat (22 days): 0.1% Renex-36
Description: as §5, §6, §9

Winter barley = test: Post-emergence test in barley and wheat: winter barley; settings: for damage, Winter barley (21 days): 0.1% Renex-36
Description: as §5, §6, §9

Durum wheat = test: Post-emergence test in barley and wheat: durum wheat
Description: as §5, §6, §8, §9

Winter wheat = test: Post-emergence test in barley and wheat: winter wheat
Description: as §5, §6, §8, §9

Solanum = test: Post-emergence test (herbicidal action, Colby): Solanum; settings: single active compound at 15 g of a.i./ha
From the text: as §1, §2, §5, §6, §8, §9

Veronica = test: Post-emergence test (herbicidal action, Colby): Veronica; settings: single active compound at 8 g of a.i./ha
From the text: as §1, §2, §5, §6, §8, §9

Ipomoea = test: Pre-emergence test (herbicidal action, Colby): Ipomoea; settings: 60 g of a.i./ha

Structure (SMILES): COc1cc(OC)nc(NC(=O)NS(=O)(=O)c2cc(NC=O)ccc2C(=O)N(C)C)n1 [foramsulfuron, 2-[[[[(4,6-dimethoxy-2-pyrimidinyl)-amino]-carbonyl]-amino]-sulphonyl]-4-formylamino-N,N-dimethyl-benzamide]
- Cassia (pre-emergence test) (weeds; Table A27, 15 g of a.i./ha): 50
- Abutilon (pre-emergence test) (weeds; Table A27, 30 g of a.i./ha): 50
- Polygonum (pre-emergence test) (weeds; Table A27, 30 g of a.i./ha): 40

Structure (SMILES): CCNc1nc(Cl)nc(NC(C)C)n1 [atrazine, 6-chloro-4-ethylamino-2-isopropylamino-1,3,5-triazine]
- Avena (pre-emergence test) (weeds; Table A25, 500 g of a.i./ha): 80
- Bromus (pre-emergence test) (weeds; Table A25, 500 g of a.i./ha): 70
- Cyperus (pre-emergence test) (weeds; Table A25, 500 g of a.i./ha): 50
- Lolium (pre-emergence test) (weeds; Table A25, 500 g of a.i./ha): 90

Structure (SMILES): CS(=O)(=O)c1cc(C(F)(F)F)ccc1C(=O)c1cnoc1C1CC1 [isoxaflutole, (5-cyclopropyl-isoxazol-4-yl)-(2-methylsulphonyl-4-trifluoromethyl-phenyl)-methanone]
- pest or weed control at 30 g/ha (Abutilon; 30 g of a.i./ha, read-out: Abutilon): 80%
- Avena (pre-emergence test) (weeds; Table A26, 30 g of a.i./ha): 30
- Cassia (pre-emergence test) (weeds; Table A26, 30 g of a.i./ha): 70
- Digitaria (pre-emergence test) (weeds; Table A26, 30 g of a.i./ha): 80
- Echinochloa (pre-emergence test) (weeds; Table A26, 30 g of a.i./ha): 30
- Lolium (pre-emergence test) (weeds; Table A26, 30 g of a.i./ha): 30
- Matricaria (pre-emergence test) (weeds; Table A26, 30 g of a.i./ha): 20
- Setaria (pre-emergence test) (weeds; Table A26, 30 g of a.i./ha): 30
- Echinochloa (pre-emergence test) (weeds; Table A26, 60 g of a.i./ha): 40
- Lolium (pre-emergence test) (weeds; Table A26, 60 g of a.i./ha): 50
- Matricaria (pre-emergence test) (weeds; Table A26, 60 g of a.i./ha): 40
- Setaria (pre-emergence test) (weeds; Table A26, 60 g of a.i./ha): 30
- Datura (Datura; 60 g of a.i./ha): 90%
- Alopecurus (Alopecurus; 60 g of a.i./ha): 40%
- Digitaria (Digitaria; 30 g of a.i./ha): 90%
- Polygonum (Polygonum; 30 g of a.i./ha): 0%

Structure (SMILES): CCOCN(C(=O)CCl)c1c(C)cccc1CC [acetochlor, 2-chloro-N-(ethoxymethyl)-N-(2-ethyl-6-methyl-phenyl)-acetamide]
- pest or weed control at 125 g/ha (Abutilon; 125 g of a.i./ha): 0%
- pest or weed control at 250 g/ha (Abutilon; 250 g of a.i./ha): 40%
- Chenopodium (pre-emergence test) (weeds; Table A20, 125 g of a.i./ha): 30
- Datura (pre-emergence test) (weeds; Table A20, 125 g of a.i./ha): 30
- Galium (pre-emergence test) (weeds; Table A20, 125 g of a.i./ha): 0
- Ipomoea (pre-emergence test) (weeds; Table A20, 125 g of a.i./ha): 0
- Datura (pre-emergence test) (weeds; Table A20, 250 g of a.i./ha): 50
- Galium (pre-emergence test) (weeds; Table A20, 250 g of a.i./ha): 20
- Ipomoea (pre-emergence test) (weeds; Table A20, 250 g of a.i./ha): 20
- Lolium (pre-emergence test) (weeds; Table A20, 250 g of a.i./ha): 90
- Stellaria (Stellaria; 125 g of a.i./ha): 80%
- Alopecurus (Alopecurus; 125 g of a.i./ha): 30%
- Matricaria (Matricaria; 125 g of a.i./ha): 90%
- Echinochloa (Echinochloa): 80%
- Digitaria (Digitaria; 125 g of a.i./ha): 80%
- Cyperus (Cyperus; 125 g of a.i./ha): 60%
- Cyperus (Cyperus; 250 g of a.i./ha): 60%
- Polygonum (Polygonum; 125 g of a.i./ha): 30%
- Polygonum (Polygonum; 250 g of a.i./ha): 30%
- Setaria (Setaria): 80%

Structure (SMILES): CCS(=O)(=O)Nc1cc(-n2c(=O)cc(C(F)(F)F)n(C)c2=O)c(F)cc1C(N)=S [I-6, 2-(ethylsulphonylamino)-5-fluoro-4-[3-methyl-2,6-dioxo-4-trifluoromethyl-3,6-dihydro-1(2H)-pyrimidinyl]-benzenecarbothioamide]
- Maize (7 days) (maize; Table A30, 60 g of a.i./ha): 30%
- Maize (7 days) (maize; Table A30, 90 g of a.i./ha): 60%
- Maize (12 days) (maize; Table A30, 90 g of a.i./ha): 60%
- Maize (21 days) (maize; Table A30, 90 g of a.i./ha): 30%
- Summer wheat (5 days) (Summer wheat; 15 g of a.i./ha): 40%
- Summer wheat (21 days) (Summer wheat; 15 g of a.i./ha): 30%
- damage, Summer wheat (5 days) (Summer wheat; 15 g of a.i./ha): 50%
- damage, Summer wheat (21 days) (Summer wheat; 15 g of a.i./ha): 20%
- damage, Summer wheat (22 days) (Summer wheat; 15 g of a.i./ha): 20%
- Summer wheat (5 days) (Summer wheat; 30 g of a.i./ha): 50%
- Summer wheat (21 days) (Summer wheat; 30 g of a.i./ha): 40%
- damage, Summer wheat (5 days) (Summer wheat; 30 g of a.i./ha): 60%
- damage, Summer wheat (21 days) (Summer wheat; 30 g of a.i./ha): 30%
- damage, Summer wheat (22 days) (Summer wheat; 30 g of a.i./ha): 30%
- Winter barley (5 days) (Winter barley; 4 g of a.i./ha): 30%
- Winter barley (21 days) (Winter barley; 4 g of a.i./ha): 50%
- Winter barley (22 days) (Winter barley; 4 g of a.i./ha): 10%
- Winter barley (5 days) (Winter barley; 8 g of a.i./ha): 40%
- Winter barley (21 days) (Winter barley; 8 g of a.i./ha): 50%
- Winter barley (22 days) (Winter barley; 8 g of a.i./ha): 20%
- Winter barley (5 days) (Winter barley; 15 g of a.i./ha): 60% and 50%
- damage, Winter barley (21 days) (Winter barley; 15 g of a.i./ha): 20%
- Winter barley (5 days) (Winter barley; 30 g of a.i./ha): 50%
- Winter barley (21 days) (Winter barley; 30 g of a.i./ha): 20%
- damage, Winter barley (21 days) (Winter barley; 30 g of a.i./ha): 30%
- Durum wheat (5 days) (Durum wheat; 15 g of a.i./ha): 20%
- Durum wheat (21 days) (Durum wheat; 15 g of a.i./ha): 20%
- damage, Durum wheat (5 days) (Durum wheat; 15 g of a.i./ha, 0.1% Renex-36): 20%
- Durum wheat (5 days) (Durum wheat; 30 g of a.i./ha): 30%
- Durum wheat (21 days) (Durum wheat; 30 g of a.i./ha): 20%
- damage, Durum wheat (5 days) (Durum wheat; 30 g of a.i./ha, 0.1% Renex-36): 30%
- damage, Durum wheat (22 days) (Durum wheat; 30 g of a.i./ha, 22 days, 0.1% Renex-36): 20%
- Winter wheat (5 days) (Winter wheat; 4 g of a.i./ha): 20%
- Winter wheat (20 days) (Winter wheat; 4 g of a.i./ha): 10%
- Winter wheat (22 days) (Winter wheat; 4 g of a.i./ha): 20%
- Winter wheat (5 days) (Winter wheat; 8 g of a.i./ha): 30%
- Winter wheat (20 days) (Winter wheat; 8 g of a.i./ha): 10%
- Winter wheat (22 days) (Winter wheat; 8 g of a.i./ha): 20%
- Winter wheat (5 days) (Winter wheat; 15 g of a.i./ha): 30%
- Winter wheat (20 days) (Winter wheat; 15 g of a.i./ha): 20%
- damage, Winter wheat (21 days) (Winter wheat; 15 g of a.i./ha, 21 days, 0.1% Renex-36): 10%

Structure (SMILES): CCS(=O)(=O)N(C(=O)c1cccs1)c1cc(-n2c(=O)cc(C(F)(F)F)n(N)c2=O)c(F)cc1C#N [I-5, N-[5-(3-amino-2,6-dioxo-4-trifluoromethyl-3,6-dihydro-1(2H)-pyrimidinyl)-2-cyano-4-fluoro-phenyl]-N-(2-thienyl-carbonyl)-1-ethanesulphonamide]
- Maize (7 days) (maize; Table A32, 60 g of a.i./ha): 20%
- Maize (12 days) (maize; Table A32, 60 g of a.i./ha): 30%
- Maize (21 days) (maize; Table A32, 60 g of a.i./ha): 18%
- Maize (7 days) (maize; Table A32, 90 g of a.i./ha): 60%
- Maize (12 days) (maize; Table A32, 90 g of a.i./ha): 70%
- Maize (21 days) (maize; Table A32, 90 g of a.i./ha): 64%

Structure (SMILES): COCc1cnc(C2=NC(C)(C(C)C)C(=O)N2)c(C(=O)O)c1 (centres unmarked) [imazamox, 2-(4,5-dihydro-4-methyl-4-isopropyl-5-oxo-1H-imidazol-2-yl)-5-methoxymethyl-pyridine-3-carboxylic acid]
- damage, Solanum (Solanum): 0%
- damage, Veronica (Veronica): 0%

Structure (SMILES): CS(=O)(=O)c1ccc(C(=O)C2C(=O)CCCC2=O)c(Cl)c1 [sulcotrione, 2-(2-chloro-4-methylsulphonyl-benzoyl)-cyclohexane-1,3-dione]
- pest or weed control at 30 g/ha (Abutilon; Abutilon, read-out: Abutilon): 70%
- pest or weed control at 60 g/ha (Abutilon; Abutilon, read-out: Abutilon): 80%
- Datura (Datura; 30 g of a.i./ha): 50%
- Stellaria (Stellaria; 60 g of a.i./ha): 80%
- Matricaria (Matricaria; 30 g of a.i./ha): 40%
- Ipomoea (Ipomoea): 80%
- Cyperus (Cyperus; 30 g of a.i./ha): 90%

Structure (SMILES): CCCN(CCC)c1c([N+](=O)[O-])cc(C(F)(F)F)cc1[N+](=O)[O-] [trifluralin, 1-amino-2,6-dinitro-N,N-di-propyl-4-trifluoromethyl-benzene]
- Cassia (pre-emergence test) (weeds; Table A24, 250 g of a.i./ha): 80
- Lolium (pre-emergence test) (weeds; Table A24, 250 g of a.i./ha): 95
- Setaria (pre-emergence test) (weeds; Table A24, 250 g of a.i./ha): 95
- Echinochloa (pre-emergence test) (weeds; Table A24, 500 g of a.i./ha): 95
- Veronica (pre-emergence test) (weeds; Table A24, 500 g of a.i./ha): 95

From patent publication US6734139B1, “N-aryl-uracile-based herbicides” (priority 1999, dated 2004)
